Test results reported in US10273278B2, “Epitope recognized by anti-interferon gamma autoantibodies in patients with disseminated mycobacterial infections and the application therefor” (priority 2015, dated 2019).

What was measured:
WKY/NcrlNarl rats = assay: Immunization of rats with Noc2 or IFNr peptide conjugated with OVA; type: in vivo, rat; details: 0.25 mg peptide-OVA, booster every two weeks
Experimental: The inventor immunized WKY/NcrlNarl rats with 0.25 mg Noc2 or IFNr[…] peptide (Noc2: […] (SEQ NO: 31); IFNr: […] (SEQ NO: 32)) conjugated with ovalbumin (OVA) and gave a booster dose every two weeks after the initial injection (day 0). After 70 days, the inventor checked the antibody production level by dot blot or ELISA at each injection. All rats were sacrificed ten days after the tenth injection (day 136) and whole blood was collected. After collection of the whole blood, the blood was allowed to clot by leaving it undisturbed at room temperature 15 minutes. Clots were removed by centrifuging at 1500 g for 10 minutes in a refrigerated centrifuge. Sera were aliquoted and stored at −20° C. for further use.
Blood sera from pre-immunized rats (n=6), Noc2 peptide-immunized rats (n=4) and Peptide 6-immunized rats (n=2) were mapped to control peptide, Peptide 6 and Noc2 peptide from Aspergillus terreus or Aspergillus fumigatus. This is represented as the mean optical density (OD) at 405 nm.

THP1 cells = assay: p-STAT1 in THP1 cells pre-incubated with sera of immunized rats and treated with IFNr; type: cell-based; details: 50% sera
anti-IFNr AutoAbs [1] = assay: Protein mapping ELISA of recombinant IFNr proteins with blood plasma; type: binding, human; details: for recognition of recombinant IFNr protein by blood plasma (ELISA): plasma from group-1 patients
anti-IFNr AutoAbs [2] = assay: Immunoblotting (Western blot / dot blot) with patient or control plasma; type: binding, human; details: for recognition by anti-IFNr AutoAbs in Western blot and dot blot: plasma from anti-IFNr AutoAbs patients; for binding of plasma from healthy controls in Western blot: plasma from healthy donors
Experimental: Recombinant IFNr[…] (R&D Systems) and different truncated forms of recombinant IFNr[…] were subjected to SDS-PAGE using a 10% gel under reducing conditions at 120 V for 2 hours. The proteins were transferred to a PVDF membrane (Invitrogen Life Technologies) at 250 mA for 2 hours. The membrane was blocked in 5% human normal serum albumin (Aventis) in TBS with 0.1% Tween 20 overnight at 4° C. The membrane was incubated with a 1/100 dilution of patient or control blood plasma for 3 hours at room temperature. After being washed three times, the membrane was incubated in a 1/10,000 dilution of mouse anti-human IgG conjugated with horseradish peroxidase (Jackson ImmunoResearch Laboratories) for 1 hour at room temperature. After being washed three times, the membrane was developed with ECL (Merck Millipore).
Plasma from 3 healthy donors had no response to either IFNr1-131 or EE-IFNr.

anti-IFNr AutoAbs [3] = assay: Epitope mapping ELISA of synthetic peptides with blood plasma; type: binding, human; details: for recognition of synthetic peptide by blood plasma: plasma from anti-IFNr AutoAbs patients (group-1), 1:100, OD 405 nm
Experimental: Clear polystyrene 96-well flat bottom plates (Nunc) were coated with 100 μL of peptide solution (5 μg/mL) with b-carbonate buffer (pH 9.6) at 4° C. overnight. After blocking the remaining binding sites with 5% human normal serum albumin (Aventis) in PBS, the plates were incubated at 37° C. for 1 hour. Afterward, the plates were washed 3 times with 0.5% Tween 20 in PBS.
Blood plasma samples were added at a 1:100 dilution, in PBS containing 5% human normal serum albumin. Following incubation at room temperature for 2 hours and being washed 3 times, goat anti-human IgG Fcr fragment specific conjugated with alkaline phosphate (Jackson ImmunoResearch Laboratories), was added at a 1:5000 dilution, and the plates were kept for 1 hour at room temperature. Finally, after being washed 5 times, 100 μL of p-Nitrophenyl Phosphate (pNPP) was added and the reaction was read at 405 nm by a VICTOR X3 Multilabel Plate Reader (PerkinElmer) after 30 minutes of incubation at 37° C.

anti-IFNr AutoAbs [4] = assay: Competition ELISA against coated peptide 6; type: binding, human; details: patient plasma pre-incubated with 5-30 μg/mL competitor peptide
Experimental: To evaluate the specificity of the reaction, a competition ELISA experiment was performed. Each plasma sample (1:100 dilutions) was pre-incubated with different concentrations (5-30 μg/mL) of the competition peptides overnight at 4° C. Subsequently, all plasma and different concentrations competition peptides mixture samples were examined following the epitope mapping protocol. Peptide 6 was coated with b-carbonate buffer (pH 9.6) at 4° C. overnight. After blocking at 37° C. for 1 hour, all pre-incubated plasma and different concentrations competition peptides mixture samples were added in duplicate. Following 2 hours of room temperature incubation, goat anti-human IgG Fcr fragment specific conjugated with alkaline phosphate, was added. Finally, 100 μL of pNPP was added and the reaction was read at 405 nm by a VICTOR X3 Multilabel Plate Reader (PerkinElmer) after 30 minutes of incubation at 37° C.

p-STAT1 in PBMCs = assay: p-STAT1 intracellular stain in PBMCs (CD14+ gated); type: cell-based, human; details: for p-STAT1 signaling restored / up-regulated: IFNr AutoAbs patients' PBMCs pre-incubated with 10% autologous blood plasma; for phosphorylation of STAT1: controls' PBMCs pre-incubated with 20% blood plasma with anti-IFNr AutoAbs from patients; for p-STAT1 signaling: controls' PBMCs, 20% control blood plasma
Experimental: A total of 10^6 PBMCs in 200 μL RPMI-1640 with 10% FBS and 1% penicillin/streptomycin was used. […] After 30 minutes of stimulation in a 37° C. incubator, monocytes were identified by FITC-CD14 (BD Pharmingen) surface staining. Fixed by adding 250 μL of FASC lysing solution (BD Pharmingen) and incubated at room temperature for 15 minutes in the dark, followed by two washes with PBS. To permeabilize the cells, 500 μl of ice-cold absolute methanol was added to each tube and incubated for 15 minutes on ice in the dark, followed by two washes with PBS. Next, PE-phospho-STAT1 (pY701) antibody (BD Pharmingen) was added, followed by 30 minutes incubation on ice in the dark. Again, cells were washed with 2 mL of PBS before resuspension in the 500 μL of PBS. Data were collected with a FACSVerse flow cytometer (BD Biosciences) and analyzed using FACSuite software (BD Biosciences).
Representative histograms (FIG. 2c(1)-FIG. 2c(2)) and MFI (median fluorescence intensity) (FIG. 2d) are shown.
After being gated on the CD14^+, p-STAT-1 levels were determined by flow cytometry with the p-STAT-1 monoclonal antibody. Representative histograms (FIG. 4a(1)-FIG. 4a(2)) and MFI (median fluorescence intensity) (FIG. 4b) are shown.

p-STAT1 in whole blood = p-STAT1 in whole blood ex vivo; type: cell-based, human; details: for p-STAT1 signaling restored / up-regulated: IFNr AutoAbs patients' whole blood; for p-STAT1 signal: controls' whole blood
Excerpt: Representative histograms (FIG. 4f(1)-FIG. 4f(2)) and MFI (median fluorescence intensity) (FIG. 4g) are shown.

[5] = system: HLA-DR expression in PBMCs; assay: HLA-DR expression in PBMCs (CD14+ gated); type: cell-based, human; details: IFNr AutoAbs patients' PBMCs pre-incubated with 10% autologous plasma
Experimental: A total of 10^6 PBMCs in 200 μL RPMI-1640 with 10% FBS and 1% penicillin/streptomycin was used. Cells were then stimulated with 500 IU IFNr, IFNr_1-131 or EE-IFNr⋅ in 160 μL RPMI-1640 pre-incubated with 40 μL of normal blood plasma or patient blood plasma for 10 min at room temperature. After 24 hours of stimulation in a 37° C. incubator, monocytes were identified by FITC-CD14 (BD Pharmingen) surface staining. Next, PE-HLA-DR antibody (BD Pharmingen) was added followed by 30 minutes of incubation on ice in the dark. Cells were again washed with 2 ml of PBS before resuspension in 500 μl of PBS. Data were collected with a FACSVerse flow cytometer (BD Biosciences) and analyzed using FACSuite software (BD Biosciences).
After being gated on the CD14^+, HLA-DR expression levels were determined by flow cytometry with the HLA-DR monoclonal antibody. Representative histograms (FIG. 4d(1)-FIG. 4d(2)) and MFI (median fluorescence intensity) (FIG. 4e) are shown.

IL-12p40 in PBMCs = type: cell-based, human
anti-IFNr AutoAbs [6] = assay: Detection and titration of IFNr neutralizing autoantibodies (patient plasma, IFNr ELISA); type: binding, human; details: 200 pg/mL IFNr incubated with serially diluted patient plasma
Experimental: Blood plasma from patients and donors was serially diluted (10^−1 to 10^−6) and incubated with recombinant human IFNr at a final concentration of 200 pg/mL for 1 hour at 37° C. The IFNr level was measured with a human IFNr ELISA kit from BD Biosciences according to the manufacturer's recommendations. All experiments were performed in duplicate.

## CTPKTGKRKRSEQ
WKY/NcrlNarl rats
  antibodies developed after immunization: developed anti-Noc2 antibodies that cross-reacted with human IFNr
THP1 cells
  p-STAT1 signaling after recombinant IFNr in presence of sera of immunized rats: decreased up-regulation of p-STAT1 signaling

## IFNr_1-144: full-length recombinant IFNr expressed in Schneider 2 cells [reference compound]
anti-IFNr AutoAbs [1]
  recognition of recombinant IFNr protein by blood plasma (ELISA): recognized by blood plasma isolated from the group-1 patients
anti-IFNr AutoAbs [2]
  recognition by anti-IFNr AutoAbs in Western blot and dot blot: recognized by anti-IFNr AutoAbs

## KKDVTPKTGKRKRSEQQKDE (KKDVPPKTGKRKRSEQQKDE; listed as Aspergillus terreus) [Aspergillus Noc2 peptide]
anti-IFNr AutoAbs [3]
  recognition of synthetic peptide by blood plasma: recognized by blood plasma isolated from patients with anti-IFNr AutoAbs
anti-IFNr AutoAbs [3]; plasma from mycobacteria infected patients without AutoAbs / healthy controls
  binding of synthetic peptide by blood plasma: did not react
anti-IFNr AutoAbs [4]
  competition for AutoAbs binding to coated peptide 6: compete for IFNr AutoAbs binding with peptide 6 in a dose dependent manner

## peptide 6: 30-mer synthetic peptide of human IFNr, P114-143 (IQVMAELSPAAKTGKRKRSQMLFRGRRASQ; UniProt P01579 137-166, looked up, fragment)
anti-IFNr AutoAbs [3]
  recognition of synthetic peptide by blood plasma: recognized in the blood plasma isolated from the 12 patients in group-1
anti-IFNr AutoAbs [3]; plasma from healthy donors with non-neutralizing IFNr AutoAbs
  recognition of synthetic peptide by non-neutralizing AutoAbs: did not recognize
anti-IFNr AutoAbs [4]
  competition for AutoAbs binding to coated peptide 6: competition for the binding with coated peptide 6 in a dose dependent manner

## recombinant IFNr: Recombinant human IFNr (R&D Systems), commercial wild type [reference compound]
p-STAT1 in PBMCs
  p-STAT1 signaling restored / up-regulated: up-regulated p-STAT1 signaling cannot be observed
  phosphorylation of STAT1: not
  p-STAT1 signaling: Up-regulation of the p-STAT1 signaling was observed
p-STAT1 in whole blood
  p-STAT1 signaling restored / up-regulated: up-regulated p-STAT1 signaling was not found
  p-STAT1 signal: up-regulated
[5]
  HLA-DR expression levels restored / up-regulated: up-regulated HLA-DR expression levels were not observed
IL-12p40 in PBMCs
  IL-12p40 expression: elevation of IL-12p40 expression couldn't be observed

B1: mIFNr: murine IFNr (protein, UniProt P01580 23-155, looked up)
Interferon gamma: HGTVIESLESLNNYFNSSGIDVEEKSLFLDIWRNWQKDGDMKILQSQIISFYLRLFEVLKDNQAISNNISVIESHLITTFFSNSKAKKDAFMSIAKFEVNNPQVQRQAFNELIRVVHQLLPESSLRKRKRSRC
anti-IFNr AutoAbs [6]
  blocking of IFNr detection by plasma from patients with AutoAbs (plasma dilution): no blocking activity
anti-IFNr AutoAbs [6]; listed as murine IFNr
  blocking of IFNr detection by plasma from patients with AutoAbs (plasma dilution): did not show blocking activity

B2: IFNr_1-131: truncated recombinant human IFNr, deletion clone a.a. 1-131, expressed in Schneider 2 cells (protein)
chain: QDPYVKEAENLKKYFNAGHSDVADNGTLFLGILKNWKEESDRKIMQSQIVSFYFKLFKNFKDDQSIQKSVETIKEDMNVKFFNSNKKKRDDFEKLTNYSVTDLNVQRKAIHELIQVMAELSPAAKTGKRKR
modifications: left off: small tags and cut ends
notes: truncated recombinant human IFNr, deletion clone a.a; 1-131, expressed in Schneider 2 cells
anti-IFNr AutoAbs [1]; patients' blood plasma, OD 405 nm
  affinity of anti-IFNr AutoAbs by ELISA: bound to IFNr_1-131 in a dose dependent manner
anti-IFNr AutoAbs [1]
  recognition of recombinant IFNr protein by blood plasma (ELISA): recognized by blood plasma isolated from the group-1 patients
p-STAT1 in PBMCs
  p-STAT1 signaling restored / up-regulated: up-regulated p-STAT1 signaling cannot be observed
  phosphorylation of STAT1: not
  p-STAT1 signaling: Up-regulation of the p-STAT1 signaling was observed
p-STAT1 in whole blood
  p-STAT1 signaling restored / up-regulated: up-regulated p-STAT1 signaling was not found
  p-STAT1 signal: up-regulated
anti-IFNr AutoAbs [2]
  recognition by anti-IFNr AutoAbs in Western blot and dot blot: recognized by anti-IFNr AutoAbs
  binding of plasma from healthy controls in Western blot: no response
anti-IFNr AutoAbs [2]; listed as WT IFNr_1-131
  binding of plasma from healthy controls in Western blot: could not bind
[5]
  HLA-DR expression levels restored / up-regulated: up-regulated HLA-DR expression levels were not observed
IL-12p40 in PBMCs
  IL-12p40 expression: elevation of IL-12p40 expression couldn't be observed
